Results on 14 molecules are retold here after patent US5532263A, “Benzothiopyranoindazole antitumor agents” (priority 1995, dated 1996).

Each structure is given as a SMILES string. Where a name gives a salt, the structure may show the parent alone. Read-outs that look alike come from different tables or passages of the source.

For data set [1] the following is noted: tested as an antitumor agent (literature); cited from earlier work.
In data set [2] the test system is P388 mouse leukemia cells. Briefly: In vitro cytotoxicity: clonogenic survival in soft agar. Format: cell-based. Conditions: read-out: in vitro cytox IC50. The method, then: In Vitro Cytotoxicity This is measured by quantifying clonogenic survival in soft agar following a 1 hour transient exposure of P388 mouse leukemia cells to drug.
A further data set concerns the target HeLa cell topo II (Homo sapiens, UniProt P11388). Briefly: Topoisomerase II inhibition: promotion of covalent complex formation between pBR322 DNA and topo II (SDS/K+ precipitation). Format: biochemical. The conditions noted are these: read-out: topo II inhib EC50.
A further data set deals with calf thymus DNA. Briefly: DNA intercalation: ethidium bromide displacement assay. Format: binding. The conditions noted are these: displacement of 50% of calf thymus DNA bound ethidium bromide; average of two determinations. From the text:
A known ethidium bromide displacement assay is used to determine intercalation potency.

The nature of data set [3]: Murine antitumor activity versus Pancreatic Ductal Adenocarcinoma #03. Format: in vivo. Conditions: mouse, in vivo, iv; administered intravenously, total dose; mice, Panc 03 study; read-out: MTD (maximum tolerated total dose). From the text:
(§1) Murine Antitumor Activaty Versus Pancreatic Ductal Adenocarcinoma #03.
(§2) This is tumor growth inhibition, where T is the medium tumor burden in the treatment group times 100 at evaluation and C is the medium tumor burden in the control group at evaluation.
(§3) This is the maximum tolerated total dose administered intravenously in mg/kg.
(§4) This means the long term cures, the number of mice in the treatment group with no palpable tumor evidents after a minimum of 86 days/total number in treatment group. […]

Data set [4] deals with Pancreatic Ductal Adenocarcinoma #03 (Panc 03). The description is as above. Format: in vivo. The conditions noted are these: versus Panc 03; for LTC (long term cures): mice with no palpable tumor after a minimum of 86 days/total number in treatment group; for % T/C (tumor growth inhibition): intravenous, T/C <42% considered significant.
Excerpt: as §1, §2, §3, §4

The mark [5] stands for this setting: P388, 1 hour transient exposure, 50% reduction of clonogenic survival in soft agar.
Where [6] appears, read: DNA precipitated equivalent to 50% of the maximum precipitated by m-AMSA.
Setting [7] is: footnote j: first dose administered 4 days after tumor implantation.
Setting [8] is: footnote k: bell-shaped dose response curve noted when determining the EC50, relative to 50% of m-AMSA maximum.

Chain of HeLa cell topo II (P11388 whole entry): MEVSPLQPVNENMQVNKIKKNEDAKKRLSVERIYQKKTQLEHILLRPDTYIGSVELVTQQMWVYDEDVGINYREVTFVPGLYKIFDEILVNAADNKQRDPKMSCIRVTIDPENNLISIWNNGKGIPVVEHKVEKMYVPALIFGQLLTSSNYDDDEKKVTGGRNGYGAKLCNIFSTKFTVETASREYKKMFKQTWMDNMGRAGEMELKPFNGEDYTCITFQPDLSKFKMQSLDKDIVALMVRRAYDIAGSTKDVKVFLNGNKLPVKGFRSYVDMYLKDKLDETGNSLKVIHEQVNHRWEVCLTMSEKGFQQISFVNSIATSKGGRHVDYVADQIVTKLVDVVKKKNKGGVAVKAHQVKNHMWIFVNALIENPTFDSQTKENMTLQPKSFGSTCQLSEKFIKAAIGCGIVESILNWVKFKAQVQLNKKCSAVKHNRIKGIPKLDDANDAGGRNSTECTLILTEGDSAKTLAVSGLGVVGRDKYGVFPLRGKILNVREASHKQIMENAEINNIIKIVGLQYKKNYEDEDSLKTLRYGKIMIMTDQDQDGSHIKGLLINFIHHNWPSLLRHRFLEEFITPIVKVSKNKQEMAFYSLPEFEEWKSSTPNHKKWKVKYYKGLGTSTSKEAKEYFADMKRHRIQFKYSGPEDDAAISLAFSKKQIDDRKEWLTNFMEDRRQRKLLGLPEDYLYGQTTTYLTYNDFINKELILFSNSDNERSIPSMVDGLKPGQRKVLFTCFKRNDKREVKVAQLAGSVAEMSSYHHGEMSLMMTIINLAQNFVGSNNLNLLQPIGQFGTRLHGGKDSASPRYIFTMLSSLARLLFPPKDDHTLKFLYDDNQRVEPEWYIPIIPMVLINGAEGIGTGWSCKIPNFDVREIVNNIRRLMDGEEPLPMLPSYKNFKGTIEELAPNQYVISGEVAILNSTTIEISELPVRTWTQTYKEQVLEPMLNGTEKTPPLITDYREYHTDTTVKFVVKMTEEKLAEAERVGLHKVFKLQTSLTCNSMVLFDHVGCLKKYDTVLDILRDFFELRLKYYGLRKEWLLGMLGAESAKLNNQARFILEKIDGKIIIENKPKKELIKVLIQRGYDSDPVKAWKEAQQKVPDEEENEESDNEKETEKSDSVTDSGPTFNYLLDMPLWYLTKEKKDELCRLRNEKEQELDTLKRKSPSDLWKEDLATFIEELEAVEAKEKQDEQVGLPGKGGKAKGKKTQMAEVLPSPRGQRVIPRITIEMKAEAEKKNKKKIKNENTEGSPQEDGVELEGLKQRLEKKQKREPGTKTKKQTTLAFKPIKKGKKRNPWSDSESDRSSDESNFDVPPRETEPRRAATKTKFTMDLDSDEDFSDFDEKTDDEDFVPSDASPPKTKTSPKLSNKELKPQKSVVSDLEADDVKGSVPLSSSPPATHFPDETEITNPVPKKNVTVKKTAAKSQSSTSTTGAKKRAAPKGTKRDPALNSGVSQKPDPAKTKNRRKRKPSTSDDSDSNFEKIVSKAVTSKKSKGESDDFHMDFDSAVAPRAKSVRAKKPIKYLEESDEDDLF

In the case of `Cc1ccc2[nH]nc3c2c1Sc1ccccc1-3` [5-methyl-2H-[1]benzothiopyrano[4,3,2-cd]indazole], the antitumor activity entry in data set [1] was “inactive”.
For the molecule `CCN(CC)CCn1nc2c3c(c(CNC=O)ccc31)Sc1ccccc1-2` [Ex 5], the IC50 in data set [2] (setting [5]) amounted to 330 nM. The EC50 at HeLa cell topo II (setting [6]) is more than 260000 nM. The same molecule showed an EC50 with calf thymus DNA of 1500 nM. Further, in data set [3], the MTD was 81 mg/kg. For the same molecule, in data set [4], the “LTC (long term cures)” value is 0/5 and the “% T/C (tumor growth inhibition)” value is 0%.
In the case of `CCN(CC)CCn1nc2c3c(c(CNC=O)ccc31)Sc1ccc(OC)cc1-2` [Ex 6], the IC50 in data set [2] (setting [5]) amounted to 55000 nM. Moreover, the EC50 at HeLa cell topo II (setting [6]) is more than 240000 nM. Further, in the data set on calf thymus DNA, the EC50 stood at 1900 nM. In data set [3], the MTD turned out to be 231 mg/kg. Also, in data set [4], the “LTC (long term cures)” value is reported as 3/5 and the “% T/C (tumor growth inhibition)” value is reported as 0%.
On to `CCN(CC)CCn1nc2c3c(c(CN)ccc31)Sc1ccccc1-2` [Ex 8], for which the IC50 in data set [2] (setting [5]) was found to be 5800 nM. The EC50 is more than 250000 nM on HeLa cell topo II (setting [6]) and 120 nM in the data set with calf thymus DNA. For the same molecule, the MTD in data set [3] was 72 mg/kg. The “% T/C (tumor growth inhibition)” value in data set [4] (setting [7]) is listed as 25%. Moreover, the “LTC (long term cures)” value in data set [4] is 0/5.
Turning to `CCN(CC)CCn1nc2c3c(c(CN)ccc31)Sc1ccc(OC)cc1-2` [Ex 9], in data set [2] (setting [5]), the IC50 stood at 13000 nM. Moreover, the results for the EC50 on HeLa cell topo II (setting [6]) and with calf thymus DNA were more than 260000 nM and 130 nM, respectively. In addition, the MTD in data set [3] came to 240 mg/kg. The “% T/C (tumor growth inhibition)” value in data set [4] (setting [7]) came out at 0%. Moreover, in data set [4], the “LTC (long term cures)” value is 3/4.
For `CCN(CC)CCn1nc2c3c(c(CNC)ccc31)Sc1ccccc1-2` [Ex 10, N-methyl-2-[(2-(Diethylamino)ethyl]-2H-[1]-benzothiopyrano[4,3,2-cd]indazole-5-methanaminedihydrochloride hydrate], in data set [2] (setting [5]), the IC50 turned out to be 16000 nM. In addition, the values for the EC50 at HeLa cell topo II (setting [6]) and in the data set with calf thymus DNA were more than 220000 nM and 180 nM, respectively. In data set [3], the MTD is 326 mg/kg. Also, in data set [4], the “LTC (long term cures)” value is 1/5. Moreover, the “% T/C (tumor growth inhibition)” value in data set [4] is 0%.
Turning to `CCN(CC)CCn1nc2c3c(c(CNS(C)(=O)=O)ccc31)Sc1ccccc1-2` [Ex 11, N-[[2-[2-(Diethylamino)ethyl]-2H-[1]-benzothiopyrano[4,3,2-cd]indazol-5-yl]methyl]methanesulfonamide], the IC50 in data set [2] (setting [5]) turned out to be 500 nM. Besides, the values for the EC50 on HeLa cell topo II (setting [6]) and in the data set on calf thymus DNA were more than 230000 nM and 1800 nM, respectively. In data set [3], the MTD is 72 mg/kg. Further, the “LTC (long term cures)” value in data set [4] is recorded as 0/5. Besides, in data set [4], the “% T/C (tumor growth inhibition)” value worked out at 0%.
As for `CCN(CC)CCn1nc2c3c(c(CNS(C)(=O)=O)ccc31)Sc1ccc(OC)cc1-2` [Ex 12], in data set [2] (setting [5]), the IC50 was found to be 30000 nM. The EC50 at HeLa cell topo II (setting [6]) was more than 210000 nM. Besides, the response with calf thymus DNA was half-maximal at 1600 nM (EC50). Further, in data set [3], the MTD amounted to 208 mg/kg. Besides, in data set [4], the “LTC (long term cures)” value is on record as 3/5 and the “% T/C (tumor growth inhibition)” value is given as 0%.
Turning to `CCN(CC)CCn1nc2c3c(c(CNC(=O)OC)ccc31)Sc1ccccc1-2` [Ex 13, Methyl N-[[2-[(2-diethylamino)ethyl]-2H-[1]-benzothiopyrano(4,3,2-cd)indazol-5-yl]methyl) carbamate], the IC50 in data set [2] (setting [5]) turned out to be 500 nM. The figures for the EC50 on HeLa cell topo II (setting [6]) and in the data set on calf thymus DNA were more than 240000 nM and 2600 nM, respectively. The MTD in data set [3] was 78 mg/kg. Moreover, the “LTC (long term cures)” value in data set [4] was 3/5. The “% T/C (tumor growth inhibition)” value in data set [4] stood at 0%.
In the case of `CCN(CC)CCn1nc2c3c(c(CNC(=O)OC)ccc31)Sc1ccc(OC)cc1-2` [Ex 14], the IC50 in data set [2] (setting [5]) amounted to 45000 nM. Besides, the EC50 at HeLa cell topo II (setting [6]) is more than 220000 nM; with calf thymus DNA, 790 nM. Besides, in data set [3], the MTD stood at 170 mg/kg. The “% T/C (tumor growth inhibition)” value in data set [4] (setting [7]) amounted to 0%. Moreover, in data set [4], the “LTC (long term cures)” value was 4/4.
For the molecule `CCN(CC)CCn1nc2c3c(c(CNS(C)(=O)=O)ccc31)Sc1ccc(O)cc1-2` [Ex 15], in data set [2] (setting [5]), the IC50 is 4.4 nM. Moreover, the EC50 amounted to 550 nM on HeLa cell topo II (setting [8]) and 2400 nM in the data set with calf thymus DNA. In addition, in data set [3], the MTD is 31 mg/kg. The “% T/C (tumor growth inhibition)” value in data set [4] (setting [7]) stood at 0%. Besides, in data set [4], the “LTC (long term cures)” value is 0/5.
Take `CCN(CC)CCn1nc2c3c(c(CNC(=O)OC)ccc31)Sc1ccc(O)cc1-2` [Ex 16]: in data set [2] (setting [5]), the IC50 was 11 nM. For the same molecule, the EC50 at HeLa cell topo II (setting [8]) came to 330 nM; in the data set with calf thymus DNA, 1500 nM. The MTD in data set [3] was 18 mg/kg. The “% T/C (tumor growth inhibition)” value in data set [4] (setting [7]) stood at 13%. Besides, the “LTC (long term cures)” value in data set [4] is listed as 0/5.
On to `CCN(CC)CCNc1ccc(CN(C)S(C)(=O)=O)c2sc3ccccc3c(=O)c12` [WIN33377, reference compound], for which the IC50 in data set [2] (setting [5]) is 301 nM. In addition, the EC50 on HeLa cell topo II (setting [8]) is 3000 nM; in the data set on calf thymus DNA, 18000 nM. Moreover, the MTD in data set [3] turned out to be 124 mg/kg. In data set [4], the “LTC (long term cures)” value was 3/5. The “% T/C (tumor growth inhibition)” value in data set [4] came out at 0%.
Take `COc1cc(NS(C)(=O)=O)ccc1Nc1c2ccccc2nc2ccccc12` [mAMSA, reference compound]: the IC50 in data set [2] (P388, 1 h) is 151 nM. The EC50 in the data set with calf thymus DNA was 11000 nM. For the same molecule, the MTD in data set [3] amounted to 48 mg/kg. For the same molecule, in data set [4], the “LTC (long term cures)” value was 0/5 and the “% T/C (tumor growth inhibition)” value stood at 0%.
